In US9340590B2 (priority 2011, dated 2016):
Read-outs that look alike come from different tables or passages of the source. Positions of bridges follow the written chain, without caps; N, C: chain ends. Residues, ends and D or L forms follow the SMILES beside them.

How the values were obtained:
Assay in all cases: cell-based
hNav1.5 = hNav1.5 (Homo sapiens, UniProt Q14524)
hNav1.7 = hNav1.7 (Homo sapiens, UniProt Q15858); format: cell-based; details: for IC50: IonWorks Quattro, read-out: IWQ Use Nav1.7; for Nav1.4/Nav1.7: ratio of IWQ Use values, Nav1.4 over Nav1.7
hNav1.7, sequence (Q15858 whole entry, looked up): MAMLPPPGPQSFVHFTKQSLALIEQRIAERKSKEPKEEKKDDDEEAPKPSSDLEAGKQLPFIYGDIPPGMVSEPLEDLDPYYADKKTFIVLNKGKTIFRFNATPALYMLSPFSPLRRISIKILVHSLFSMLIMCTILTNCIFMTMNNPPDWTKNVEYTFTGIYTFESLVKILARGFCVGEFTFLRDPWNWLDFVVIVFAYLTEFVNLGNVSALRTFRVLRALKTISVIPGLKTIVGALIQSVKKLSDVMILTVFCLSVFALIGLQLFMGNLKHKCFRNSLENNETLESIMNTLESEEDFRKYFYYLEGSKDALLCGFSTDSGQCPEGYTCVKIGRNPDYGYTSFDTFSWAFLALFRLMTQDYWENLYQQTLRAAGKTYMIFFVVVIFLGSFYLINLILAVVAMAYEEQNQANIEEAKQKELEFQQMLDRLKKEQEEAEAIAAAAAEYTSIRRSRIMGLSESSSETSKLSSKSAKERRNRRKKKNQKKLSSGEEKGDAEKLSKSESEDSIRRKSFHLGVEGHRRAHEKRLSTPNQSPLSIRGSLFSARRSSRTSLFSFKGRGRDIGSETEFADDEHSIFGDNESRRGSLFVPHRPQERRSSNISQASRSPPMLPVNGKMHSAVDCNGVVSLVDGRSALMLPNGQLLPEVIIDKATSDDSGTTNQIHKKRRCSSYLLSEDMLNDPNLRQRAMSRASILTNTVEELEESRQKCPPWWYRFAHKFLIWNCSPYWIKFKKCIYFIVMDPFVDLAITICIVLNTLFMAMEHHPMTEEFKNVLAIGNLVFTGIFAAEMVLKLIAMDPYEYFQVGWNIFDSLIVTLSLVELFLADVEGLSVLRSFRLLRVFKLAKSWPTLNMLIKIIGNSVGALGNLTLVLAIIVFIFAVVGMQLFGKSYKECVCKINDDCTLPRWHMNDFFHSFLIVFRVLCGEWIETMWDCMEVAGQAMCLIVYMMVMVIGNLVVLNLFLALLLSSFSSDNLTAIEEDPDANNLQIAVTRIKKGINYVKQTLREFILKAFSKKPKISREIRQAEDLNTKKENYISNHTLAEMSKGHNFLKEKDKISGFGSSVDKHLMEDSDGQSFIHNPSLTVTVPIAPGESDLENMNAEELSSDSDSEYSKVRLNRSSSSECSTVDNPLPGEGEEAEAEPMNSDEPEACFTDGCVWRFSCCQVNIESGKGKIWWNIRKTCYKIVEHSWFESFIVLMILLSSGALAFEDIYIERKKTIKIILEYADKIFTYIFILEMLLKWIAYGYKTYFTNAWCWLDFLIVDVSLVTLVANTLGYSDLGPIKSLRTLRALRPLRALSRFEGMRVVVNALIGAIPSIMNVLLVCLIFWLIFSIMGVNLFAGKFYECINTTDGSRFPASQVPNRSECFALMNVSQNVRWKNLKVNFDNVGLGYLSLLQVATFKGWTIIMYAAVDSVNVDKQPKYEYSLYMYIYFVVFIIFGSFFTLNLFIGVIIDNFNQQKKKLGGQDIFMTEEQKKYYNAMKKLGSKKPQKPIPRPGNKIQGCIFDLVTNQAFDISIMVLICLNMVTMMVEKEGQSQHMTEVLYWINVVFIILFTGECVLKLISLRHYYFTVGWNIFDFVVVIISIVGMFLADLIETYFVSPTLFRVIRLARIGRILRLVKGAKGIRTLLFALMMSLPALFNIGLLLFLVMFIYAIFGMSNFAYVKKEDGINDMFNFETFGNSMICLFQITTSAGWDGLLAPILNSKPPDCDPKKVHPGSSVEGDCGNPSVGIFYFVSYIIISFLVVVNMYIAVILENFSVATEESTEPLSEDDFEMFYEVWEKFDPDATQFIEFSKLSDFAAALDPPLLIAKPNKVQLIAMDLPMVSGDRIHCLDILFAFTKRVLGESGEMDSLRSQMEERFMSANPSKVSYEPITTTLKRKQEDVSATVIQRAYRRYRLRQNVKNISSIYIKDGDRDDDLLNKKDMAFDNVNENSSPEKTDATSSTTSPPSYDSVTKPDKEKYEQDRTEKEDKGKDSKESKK

hNav1.3 = hNav1.3 (Homo sapiens, UniProt Q9NY46); details: for IC50: IonWorks Quattro, read-out: IWQ Use Nav1.3; for Nav1.4/Nav1.3 / Nav1.7/Nav1.3: ratio of IWQ Use values; for Nav1.4/Nav1.3: Nav1.4 over Nav1.3; for Nav1.7/Nav1.3: Nav1.7 over Nav1.3
hNav1.3, sequence (Q9NY46 whole entry, looked up): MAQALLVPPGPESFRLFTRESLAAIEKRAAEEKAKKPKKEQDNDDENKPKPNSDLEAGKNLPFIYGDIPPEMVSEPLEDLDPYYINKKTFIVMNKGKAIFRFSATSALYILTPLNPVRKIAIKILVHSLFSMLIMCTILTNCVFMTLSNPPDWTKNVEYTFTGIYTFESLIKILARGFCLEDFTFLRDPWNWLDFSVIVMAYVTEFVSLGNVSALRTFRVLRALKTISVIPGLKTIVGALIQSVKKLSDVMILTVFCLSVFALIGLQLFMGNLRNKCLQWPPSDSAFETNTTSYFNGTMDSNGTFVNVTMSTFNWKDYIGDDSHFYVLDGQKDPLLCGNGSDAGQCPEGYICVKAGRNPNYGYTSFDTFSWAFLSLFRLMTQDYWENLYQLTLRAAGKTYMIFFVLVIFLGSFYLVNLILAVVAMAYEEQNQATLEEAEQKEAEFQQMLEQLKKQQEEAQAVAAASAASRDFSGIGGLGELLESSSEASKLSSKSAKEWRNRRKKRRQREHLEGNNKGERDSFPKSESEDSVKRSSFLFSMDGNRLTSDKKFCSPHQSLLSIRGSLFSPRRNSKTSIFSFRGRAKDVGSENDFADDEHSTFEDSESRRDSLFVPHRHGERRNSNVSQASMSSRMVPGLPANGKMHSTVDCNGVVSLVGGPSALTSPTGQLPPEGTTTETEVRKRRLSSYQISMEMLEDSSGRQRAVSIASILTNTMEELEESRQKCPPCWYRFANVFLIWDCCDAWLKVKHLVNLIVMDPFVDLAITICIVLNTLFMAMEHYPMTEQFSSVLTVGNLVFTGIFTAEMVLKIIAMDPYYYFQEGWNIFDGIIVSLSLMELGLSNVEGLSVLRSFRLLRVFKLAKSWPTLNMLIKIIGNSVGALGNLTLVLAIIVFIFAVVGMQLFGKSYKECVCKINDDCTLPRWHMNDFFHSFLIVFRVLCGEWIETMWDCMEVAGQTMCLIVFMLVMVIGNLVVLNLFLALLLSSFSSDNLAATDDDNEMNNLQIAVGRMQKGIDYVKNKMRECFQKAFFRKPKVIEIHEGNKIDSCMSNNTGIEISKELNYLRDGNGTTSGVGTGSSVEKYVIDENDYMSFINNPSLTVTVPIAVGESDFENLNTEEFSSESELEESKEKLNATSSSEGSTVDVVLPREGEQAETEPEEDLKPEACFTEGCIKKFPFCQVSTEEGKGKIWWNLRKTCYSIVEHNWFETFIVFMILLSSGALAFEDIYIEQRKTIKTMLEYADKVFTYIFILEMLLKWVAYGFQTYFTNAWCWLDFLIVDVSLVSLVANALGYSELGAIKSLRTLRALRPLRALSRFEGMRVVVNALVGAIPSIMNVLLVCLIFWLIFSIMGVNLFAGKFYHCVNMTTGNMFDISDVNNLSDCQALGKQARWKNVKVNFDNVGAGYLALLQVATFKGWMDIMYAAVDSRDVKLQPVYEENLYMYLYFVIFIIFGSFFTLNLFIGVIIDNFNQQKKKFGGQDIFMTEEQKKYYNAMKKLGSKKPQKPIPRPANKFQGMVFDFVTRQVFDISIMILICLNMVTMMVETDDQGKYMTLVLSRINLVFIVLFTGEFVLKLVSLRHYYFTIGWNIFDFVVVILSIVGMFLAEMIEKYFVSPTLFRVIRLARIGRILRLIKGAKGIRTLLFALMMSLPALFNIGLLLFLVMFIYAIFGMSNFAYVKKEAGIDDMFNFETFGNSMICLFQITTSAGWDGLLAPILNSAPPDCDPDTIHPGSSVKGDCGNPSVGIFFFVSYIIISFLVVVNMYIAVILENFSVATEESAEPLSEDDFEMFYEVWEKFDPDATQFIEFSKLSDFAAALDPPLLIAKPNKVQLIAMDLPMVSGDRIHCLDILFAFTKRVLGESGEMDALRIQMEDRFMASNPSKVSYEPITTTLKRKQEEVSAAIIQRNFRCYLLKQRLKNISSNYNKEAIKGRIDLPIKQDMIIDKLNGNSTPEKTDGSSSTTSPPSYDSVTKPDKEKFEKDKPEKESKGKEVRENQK

Row | Structure (SMILES) | Nav1.4/Nav1.7 (hNav1.7) | Nav1.4/Nav1.3 (hNav1.3) | Nav1.7/Nav1.3 (hNav1.3) | also measured
1 | CC[C@H](C)[C@@H]1NC(=O)[C@@H]2CSSC[C@@H]3NC(=O)[C@H](C(C)C)NC(=O)[C@H](CC(C)C)NC(=O)[C@H](CC(N)=O)NC(=O)[C@@H]4CCCN4C(=O)[C@H](CCCNC(=N)N)NC(=O)[C@H](CSSC[C@H](NC(=O)[C@@H](N)CC(=O)O)C(=O)N[C@@H](CC(C)C)C(=O)NCC(=O)N[C@@H](Cc4ccccc4)C(=O)N[C@@H](CCSC)C(=O)N[C@@H](CCCNC(=N)N)C(=O)N[C@@H](CCCCN)C(=O)N2)NC(=O)[C@H](CSSC[C@@H](C(=O)N[C@@H](CCCCN)C(=O)N[C@@H](Cc2ccc(O)cc2)C(=O)N[C@H](C(=O)N[C@@H](Cc2ccccc2)C(N)=O)C(C)C)NC(=O)[C@H](Cc2c[nH]c4ccccc24)NC(=O)[C@H](CCC(N)=O)NC(=O)[C@H](Cc2c[nH]cn2)NC(=O)[C@H]([C@@H](C)O)NC(=O)[C@H](CCCNC(=N)N)NC(=O)[C@H](CO)NC3=O)NC(=O)[C@H](CCCCN)NC(=O)[C@H](CC(=O)O)NC(=O)[C@H](CC(N)=O)NC(=O)[C@H](CC(=O)O)NC(=O)[C@@H]2CCCN2C1=O [SEQ ID NO: 763, [Gln28]GpTx-1] (H-DCLGFMRKCIPDNDKCCRPNLVCSRTHQWCKYVF-NH2; disulfide 2-17, 9-23, 16-30) | – | – | – | IC50 (hNav1.5; read-out: IWQ Use Nav1.5): 22.7 µM
2 | CC[C@@H](C)[C@H]1NC(=O)[C@H]2CSSC[C@H]3NC(=O)[C@@H](C(C)C)NC(=O)[C@@H](CC(C)C)NC(=O)[C@@H](CC(N)=O)NC(=O)[C@H]4CCCN4C(=O)[C@@H](CCCNC(=N)N)NC(=O)[C@@H](CSSC[C@@H](NC(=O)[C@H](N)CC(=O)O)C(=O)N[C@H](CC(C)C)C(=O)NCC(=O)N[C@H](Cc4ccccc4)C(=O)N[C@H](CCSC)C(=O)N[C@H](CCCNC(=N)N)C(=O)N[C@H](CCCCN)C(=O)N2)NC(=O)[C@@H](CSSC[C@H](C(=O)N[C@H](CCCCN)C(=O)N[C@H](Cc2ccc(O)cc2)C(=O)N[C@@H](C(=O)N[C@H](Cc2ccccc2)C(N)=O)C(C)C)NC(=O)[C@@H](Cc2c[nH]c4ccccc24)NC(=O)[C@@H](CCCCN)NC(=O)[C@@H](Cc2c[nH]cn2)NC(=O)[C@@H]([C@H](C)O)NC(=O)[C@@H](CCCNC(=N)N)NC(=O)[C@@H](CO)NC3=O)NC(=O)[C@@H](CCCCN)NC(=O)[C@@H](CC(=O)O)NC(=O)[C@@H](CC(N)=O)NC(=O)[C@@H](CC(=O)O)NC(=O)[C@H]2CCCN2C1=O [compound 2] | – | – | – | IC50 (hNav1.5; IWQ Use Nav1.5 (μM)): 11.3 µM
3 | CC[C@H](C)[C@@H]1NC(=O)[C@@H]2CSSC[C@@H]3NC(=O)[C@H](C(C)C)NC(=O)[C@H](CC(C)C)NC(=O)[C@H](CC(N)=O)NC(=O)[C@@H]4CCCN4C(=O)[C@H](CCCNC(=N)N)NC(=O)[C@H](CSSC[C@H](NC(=O)[C@@H](N)CC(=O)O)C(=O)N[C@@H](CC(C)C)C(=O)NCC(=O)N[C@@H](Cc4ccccc4)C(=O)N[C@@H](CCSC)C(=O)N[C@@H](CCCNC(=N)N)C(=O)N[C@@H](CCCCN)C(=O)N2)NC(=O)[C@H](CSSC[C@@H](C(=O)N[C@@H](CCCCN)C(=O)N[C@@H](Cc2ccc(O)cc2)C(=O)N[C@H](C(=O)N[C@@H](Cc2ccccc2)C(N)=O)C(C)C)NC(=O)[C@H](Cc2c[nH]c4ccccc24)NC(=O)[C@H](CCCCN)NC(=O)[C@H](Cc2c[nH]c4ccccc24)NC(=O)[C@H]([C@@H](C)O)NC(=O)[C@H](CCCNC(=N)N)NC(=O)[C@H](CO)NC3=O)NC(=O)[C@H](CCCCN)NC(=O)[C@H](CC(=O)O)NC(=O)[C@H](CC(N)=O)NC(=O)[C@H](CC(=O)O)NC(=O)[C@@H]2CCCN2C1=O [compound 84] (H-DCLGFMRKCIPDNDKCCRPNLVCSRTWKWCKYVF-NH2; disulfide 2-17, 9-23, 16-30) | – | – | – | IC50 (hNav1.7; Table 23, use, […]): 320 nM; IC50 (hNav1.3; Table 23, use, […]): 590 nM
4 | CC[C@H](C)[C@@H]1NC(=O)[C@@H]2CSSC[C@@H]3NC(=O)[C@H](C(C)C)NC(=O)[C@H](CC(C)C)NC(=O)[C@H](CC(N)=O)NC(=O)[C@@H]4CCCN4C(=O)[C@H](CCCNC(=N)N)NC(=O)[C@H](CSSC[C@H](NC(=O)[C@@H](N)CC(=O)O)C(=O)N[C@@H](CC(C)C)C(=O)NCC(=O)N[C@@H](Cc4ccccc4)C(=O)N[C@@H](CCSC)C(=O)N[C@@H](CCCNC(=N)N)C(=O)N[C@@H](CCCCN)C(=O)N2)NC(=O)[C@H](CSSC[C@@H](C(=O)N[C@@H](CCCCN)C(=O)N[C@@H](Cc2ccc(O)cc2)C(=O)N[C@H](C(=O)N[C@@H](Cc2ccccc2)C(N)=O)C(C)C)NC(=O)[C@H](Cc2c[nH]c4ccccc24)NC(=O)[C@H](CCCCN)NC(=O)[C@H](Cc2cnc[nH]2)NC(=O)[C@H](Cc2cnc[nH]2)NC(=O)[C@H](CCCNC(=N)N)NC(=O)[C@H](CO)NC3=O)NC(=O)[C@H](CCCCN)NC(=O)[C@H](CC(=O)O)NC(=O)[C@H](CC(N)=O)NC(=O)[C@H](CC(=O)O)NC(=O)[C@@H]2CCCN2C1=O [compound 337] (H-DCLGFMRKCIPDNDKCCRPNLVCSRHHKWCKYVF-NH2; disulfide 2-17, 9-23, 16-30) | – | – | – | IC50 (hNav1.7; Table 22, use, […]): 100 nM; IC50 (hNav1.3; Table 22, use, […]): 80 nM
5 | CC[C@H](C)[C@@H]1NC(=O)[C@@H]2CSSC[C@@H]3NC(=O)[C@H](C(C)C)NC(=O)[C@H](CC(C)C)NC(=O)[C@H](CC(N)=O)NC(=O)[C@@H]4CCCN4C(=O)[C@H](CCCNC(=N)N)NC(=O)[C@H](CSSC[C@H](NC(=O)[C@@H](N)CC(=O)O)C(=O)N[C@@H](CC(C)C)C(=O)NCC(=O)N[C@@H](Cc4ccc(C(F)(F)F)cc4)C(=O)N[C@@H](CCSC)C(=O)N[C@@H](CCCNC(=N)N)C(=O)N[C@@H](CCCCN)C(=O)N2)NC(=O)[C@H](CSSC[C@@H](C(=O)N[C@@H](CCCCN)C(=O)N[C@@H](Cc2ccc(O)cc2)C(=O)N[C@H](C(=O)N[C@@H](Cc2ccccc2)C(N)=O)C(C)C)NC(=O)[C@H](Cc2c[nH]c4ccccc24)NC(=O)[C@H](CCCCN)NC(=O)[C@H](Cc2c[nH]cn2)NC(=O)[C@H]([C@@H](C)O)NC(=O)[C@H](CCCNC(=N)N)NC(=O)[C@H](CO)NC3=O)NC(=O)[C@H](CCCCN)NC(=O)[C@H](CC(=O)O)NC(=O)[C@H](CC(N)=O)NC(=O)[C@H](CC(=O)O)NC(=O)[C@@H]2CCCN2C1=O [compound 654] | 4.1 | 18.4 | 4.4 | –
6 | CC[C@H](C)[C@@H]1NC(=O)[C@@H]2CSSC[C@@H]3NC(=O)[C@H](C(C)C)NC(=O)[C@H](CC(C)C)NC(=O)[C@H](CC(N)=O)NC(=O)[C@@H]4CCCN4C(=O)[C@H](CCCNC(=N)N)NC(=O)[C@H](CSSC[C@H](NC(=O)[C@@H](N)CC(=O)O)C(=O)N[C@@H](CC(C)C)C(=O)NCC(=O)N[C@@H](Cc4ccc(Cl)c(Cl)c4)C(=O)N[C@@H](CCSC)C(=O)N[C@@H](CCCNC(=N)N)C(=O)N[C@@H](CCCCN)C(=O)N2)NC(=O)[C@H](CSSC[C@@H](C(=O)N[C@@H](CCCCN)C(=O)N[C@@H](Cc2ccc(O)cc2)C(=O)N[C@H](C(=O)N[C@@H](Cc2ccccc2)C(N)=O)C(C)C)NC(=O)[C@H](Cc2c[nH]c4ccccc24)NC(=O)[C@H](CCCCN)NC(=O)[C@H](Cc2c[nH]cn2)NC(=O)[C@H]([C@@H](C)O)NC(=O)[C@H](CCCNC(=N)N)NC(=O)[C@H](CO)NC3=O)NC(=O)[C@H](CCCCN)NC(=O)[C@H](CC(=O)O)NC(=O)[C@H](CC(N)=O)NC(=O)[C@H](CC(=O)O)NC(=O)[C@@H]2CCCN2C1=O [compound 653] | 8.8 | 17.7 | 2.0 | –
7 | CC[C@H](C)[C@@H]1NC(=O)[C@@H]2CSSC[C@@H]3NC(=O)[C@H](C(C)C)NC(=O)[C@H](CC(C)C)NC(=O)[C@H](CC(N)=O)NC(=O)[C@@H]4CCCN4C(=O)[C@H](CCCNC(=N)N)NC(=O)[C@H](CSSC[C@H](NC(=O)[C@@H](N)CC(=O)O)C(=O)N[C@@H](CC(C)C)C(=O)NCC(=O)NC(C)(C)C(=O)N[C@@H](CC(C)C)C(=O)N[C@@H](CCCNC(=N)N)C(=O)N[C@@H](CCCCN)C(=O)N2)NC(=O)[C@H](CSSC[C@@H](C(=O)N[C@@H](CCCCN)C(=O)N[C@@H](Cc2ccc(O)cc2)C(=O)N[C@H](C(=O)N[C@@H](Cc2ccccc2)C(N)=O)C(C)C)NC(=O)[C@H](Cc2c[nH]c4ccccc24)NC(=O)[C@H](CCCCN)NC(=O)[C@H](Cc2c[nH]cn2)NC(=O)[C@H]([C@@H](C)O)NC(=O)[C@H](CCCNC(=N)N)NC(=O)[C@H](CO)NC3=O)NC(=O)[C@H](CCCCN)NC(=O)[C@H](CC(=O)O)NC(=O)[C@H](CC(N)=O)NC(=O)[C@H](CC(=O)O)NC(=O)[C@@H]2CCCN2C1=O [compound 635] | – | – | – | IC50 (hNav1.7; use-dependent protocol, hNav1.7): 230 nM; IC50 (hNav1.3; use-dependent protocol, hNav1.3): 380 nM
8 | CC[C@H](C)[C@@H]1NC(=O)[C@@H]2CSSC[C@@H]3NC(=O)[C@H](C(C)C)NC(=O)[C@H](CC(C)C)NC(=O)[C@H](CC(N)=O)NC(=O)[C@@H]4CCCN4C(=O)[C@H](CCCNC(=N)N)NC(=O)[C@H](CSSC[C@H](NC(=O)[C@@H](N)CC(=O)O)C(=O)N[C@@H](CC(C)C)C(=O)NCC(=O)N[C@@H](Cc4ccc(F)cc4)C(=O)N[C@@H](CCSC)C(=O)N[C@@H](CCCNC(=N)N)C(=O)N[C@@H](CCCCN)C(=O)N2)NC(=O)[C@H](CSSC[C@@H](C(=O)N[C@@H](CCCCN)C(=O)N[C@@H](Cc2ccc(O)cc2)C(=O)N[C@H](C(=O)N[C@@H](Cc2ccccc2)C(N)=O)C(C)C)NC(=O)[C@H](Cc2c[nH]c4ccccc24)NC(=O)[C@H](CCCCN)NC(=O)[C@H](Cc2c[nH]cn2)NC(=O)[C@H]([C@@H](C)O)NC(=O)[C@H](CCCNC(=N)N)NC(=O)[C@H](CO)NC3=O)NC(=O)[C@H](CCCCN)NC(=O)[C@H](CC(=O)O)NC(=O)[C@H](CC(N)=O)NC(=O)[C@H](CC(=O)O)NC(=O)[C@@H]2CCCN2C1=O [compound 655] | 7.1 | 26.6 | 3.8 | –
